Reference: patent publication US20050222108A1, “Solvent-based sterilisation of pharmaceuticals” (priority 2002, published 2005)
Read-outs that look alike come from different tables or passages of the source.

Tests used:
[1] = Solubility by w/w % assay of saturated solutions in various solvents; format: physicochemical; conditions: saturated solution, 21-23° C.
Procedure: The solubility of fluticasone propionate was measured by w/w % assay of saturated solutions in a variety of solvents at 21-23° C.

[2] = format: physicochemical; conditions: for Area %: 100° C. under nitrogen, in water
Procedure: A sample from the above example was heated to 100° C. under nitrogen for 30 hours to examine the stability of the drug under extended distillation times required on scale-up. No new impurities were evident in the area % chromatogram and the assay of the fluticasone propionate appears unaffected by extended periods at 100° C. in water.

[3] = Stability to distillation at atmospheric pressure (HPLC area % profile); format: physicochemical; conditions: Example 5
Procedure: In this example, a development of example 4, the distillation was performed at atmospheric pressure and the first distillation was halted when the pot temperature reached 99° C. […] A further 25 volumes of water were added and the distillation continued until 25 volumes of distillate had been removed.

With `CCC(=O)O[C@]1(C(=O)SCF)[C@H](C)C[C@H]2[C@@H]3C[C@H](F)C4=CC(=O)C=C[C@]4(C)[C@@]3(F)[C@@H](O)C[C@@]21C` [fluticasone propionate] the “w/w % solubility of fluticasone propionate” value (“w/w % solubility” for short) ([1]; Acetone) was 5.7 w/w %, the “w/w % solubility” value ([1]; Ethanol) was 0.4 w/w % and the “w/w % solubility” value ([1]; Ethyl acetate) was 0.2 w/w %. The “w/w % solubility” value ([1]; Isopropanol) was 0.3 w/w %, the “w/w % solubility” value ([1]; tBME) was 1.2 w/w % and the “Time chemically stable to distillation at 100° C.” value [2] was “at least 30 hours”. The “Assay of fluticasone propionate after extended periods at 100° C. in water” value ([2]; 100° C. in water, up to 30 hours, no new impurities in area % chromatogram) was “unaffected”, the Area % ([2]; Time 0 hr) was 99.2% and the Area % ([2]; Time 6 hr) was 99.4%. For the same compound, the Area % ([2]; Time 24 hr) was 99.5%, the Area % ([2]; Time 30 hr) was 99.4% and the “Stability to distillation at 100° C. (HPLC area % profile, starting solid to final aqueous slurry)” value [3] was “stable”.
